Source: US20230233696A1, “TRIANTENNARY N-ACETYLGALACTOSAMINE MODIFIED HYDROXYL POLYAMIDOAMINE DENDRIMERS AND METHODS OF USE THEREOF” (Ashvattha Therapeutics, Inc., priority 2019, published 2023)

How the values were obtained:
[1] = target: T1, human angiotensin II AT1 receptor (Homo sapiens, UniProt P30556); assay: human angiotensin II AT1 receptor (antagonist radioligand) binding assay; conditions: [125I][Sar1-Ile8] angiotensin-II radioligand, cell membrane homogenates
T1 sequence (P30556 1-359): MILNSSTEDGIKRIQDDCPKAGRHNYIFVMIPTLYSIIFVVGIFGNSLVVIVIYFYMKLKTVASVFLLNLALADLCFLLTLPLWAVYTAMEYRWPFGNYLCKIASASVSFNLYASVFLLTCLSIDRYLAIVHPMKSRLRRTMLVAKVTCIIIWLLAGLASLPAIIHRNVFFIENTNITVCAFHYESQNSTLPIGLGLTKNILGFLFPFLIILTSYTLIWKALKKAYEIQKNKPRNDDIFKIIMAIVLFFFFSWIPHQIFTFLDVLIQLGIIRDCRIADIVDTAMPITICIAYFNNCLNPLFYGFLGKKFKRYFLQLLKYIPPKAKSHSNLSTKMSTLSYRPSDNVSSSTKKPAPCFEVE
Description: Cell membrane homogenates (8 µg protein) are incubated for 120 min at 37° C. with 0.05 nM [125I][Sar1-Ile8] angiotensin-II in the absence or presence of the test compounds in a buffer containing 50 mM Tris-HCl (pH 7.4), 5 mM MgCl2, 1 mM EDTA and 0.1% BSA. Nonspecific binding is determined in the presence of 10 µM angiotensin II. Following incubation, the samples solution are filtered rapidly under vacuum through glass fiber filters (GF/B, Packard) presoaked with 0.3% PEI and rinsed several times with ice-cold 50 mM Tris-HCl using a 96-sample cell harvester (Unifilter, Packard). The filters are dried then counted for radioactivity in a scintillation counter (Topcount, Packard) using a scintillation cocktail (Microscint 0, Packard).
The results are expressed as a percent inhibition of the control radioligand specific binding. Saralasin is used as the standard reference compound, which is tested in each experiment at several concentrations to obtain a competition curve from which its IC50 is calculated.

[2] = water solubility of dendrimer conjugates
[3] = in vitro drug release under plasma (pH7.4, PBS) and intracellular conditions (pH5.5, esterase); type: in vitro ADME; conditions: intracellular conditions (pH5.5, esterase), 18 days
Description: The drug release profile of both the conjugates was evaluated under plasma (pH7.4, PBS) and intracellular conditions (pH5.5, esterase).

NASH mice = assay: in vivo efficacy in STAM mouse model of non-alcoholic steatohepatitis; design: species or system C57BL/6 mice
Description: Pathogen-free 14 day-pregnant C57BL/6 mice were obtained from Japan SLC, Inc.(Japan); NASH was established in male mice by a single subcutaneous injection of 200 μg streptozotocin (STZ, Sigma, USA) 2 days after birth and feeding with a high fat diet (CLEA Japan Inc., Japan) ad libitum after 4 weeks of age (day 28 ± 2). NASH mice were randomized into 8 groups of 8 mice and 2 groups of 4 mice at 6 weeks of age (day 42 ± 2) the day before the start of treatment based on their body weight. Littermate control mice without STZ priming (n=8) were fed with normal diet ad libitum and set up for control purpose (see below for details on grouping). […] Samples would not be collected from euthanized animals. Individual body weight was measured daily during the treatment period. […] Four NASH mice were intraperitoneally administered vehicle supplemented with D-Cy5 at a dose of 50 mg/kg single shot at 6 weeks of age; • Group 11 (D-Cy5-9 wks): Four NASH mice were intraperitoneally administered vehicle supplemented with D-Cy5 at a dose of 50 mg/kg single shot at 9 weeks of age. Mice in group 10 and 11 were sacrificed at 6 and 9 weeks of age 48 hours after the administration. Mice in group 1 - 9 were sacrificed at 9 weeks of age for the following assay, group 10 and 11 were sacrificed at 6 and 9 weeks of age for the following assays. Individual liver weight were measured and liver-to-body weight ratio were calculated. Non-fasting serum ALT levels were quantified by FUJI DRI CHEM (Fujifilm, Japan). Liver triglyceride levels were quantified by Triglyceride E-test kit (FUJIFUILM Wako Pure Chemical Corporation, Japan). HE staining and estimation of NAFLD Activity score was carried out using routine methods. Sirius-red staining and estimation of the percentage of fibrosis area was also calculated. After completion of the in-life portion of the study, the following samples were collected for further analyses or shipping. […] Dissect the animal and collect the tissue samples (right and left kidneys, liver) in sequential order. Sample thickness was less than approximately 5 mm to ensure proper fixation, with a flat surface across the area of interest. Put the samples into 4% NBF for fixation immediately. Fix the samples in 4% NBF overnight at room temperature.

CSF1R = CSF1R (Homo sapiens, UniProt P07333); assay: binding affinity towards CSF1R
CSF1R, sequence (P07333 20-972, species assumed): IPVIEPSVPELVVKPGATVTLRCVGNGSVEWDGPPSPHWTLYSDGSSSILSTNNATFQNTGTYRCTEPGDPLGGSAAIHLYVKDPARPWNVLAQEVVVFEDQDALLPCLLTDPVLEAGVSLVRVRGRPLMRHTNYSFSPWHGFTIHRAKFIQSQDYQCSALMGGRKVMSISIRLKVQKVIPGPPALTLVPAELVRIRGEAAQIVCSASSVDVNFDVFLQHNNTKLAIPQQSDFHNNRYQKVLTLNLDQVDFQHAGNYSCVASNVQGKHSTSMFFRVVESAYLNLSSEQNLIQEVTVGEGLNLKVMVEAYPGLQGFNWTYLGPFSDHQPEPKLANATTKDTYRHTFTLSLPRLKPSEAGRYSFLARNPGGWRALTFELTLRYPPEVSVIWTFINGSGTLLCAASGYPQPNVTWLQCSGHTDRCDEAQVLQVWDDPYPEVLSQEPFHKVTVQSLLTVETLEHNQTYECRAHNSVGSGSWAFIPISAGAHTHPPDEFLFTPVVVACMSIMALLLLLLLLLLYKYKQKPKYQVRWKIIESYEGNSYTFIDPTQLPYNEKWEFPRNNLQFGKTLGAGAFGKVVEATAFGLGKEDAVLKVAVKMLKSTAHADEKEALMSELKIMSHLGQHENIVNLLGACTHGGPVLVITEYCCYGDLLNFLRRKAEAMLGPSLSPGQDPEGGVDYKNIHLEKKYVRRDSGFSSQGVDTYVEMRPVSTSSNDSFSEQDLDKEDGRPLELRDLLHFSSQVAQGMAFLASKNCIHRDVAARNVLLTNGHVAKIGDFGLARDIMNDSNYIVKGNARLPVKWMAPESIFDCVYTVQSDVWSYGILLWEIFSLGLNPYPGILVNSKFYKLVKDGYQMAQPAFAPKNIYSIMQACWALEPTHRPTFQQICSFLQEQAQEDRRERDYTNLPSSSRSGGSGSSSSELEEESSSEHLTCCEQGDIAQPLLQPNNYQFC

[4] = NASH mice, significantly compared to free OCA and vehicle control (p < 0.05, n=8)

Compound “telmisartan-ester-PEG4 azide [Telmisartan ester linker]” has a Kd [1] of 28.5 nM.

For “dendrimer-GalNAc (4-5)-telmisartan amide (6-7) [D-Tel]”, the water solubility [2] was 60 to 70 mg/mL and the drug release [3] was “less than 10%”.

In the case of “dendrimer-triantennary GalNAc(4-5)-telmisartan (7-8) [D-TelB]”, the drug release [3] is reported as 94%.

For “dendrimer-GalNAc(4-5)-Obeticholic acid conjugate (6-7) [D-OCA]”, the “liver function (biochemical analysis)” value (NASH mice; NASH mice) was “improved liver function”, the NAFLD score (NASH mice; [4]) was “decreases” and the hepatocyte ballooning (NASH mice; [4]) was “decreases”. The liver fibrosis (NASH mice; [4]) was “decreases”, the fibrosis score (NASH mice; high dose D-OCA (315 mg/kg i.p. every other day), compared to free OCA group) was “improved reduction” and the stenosis score (NASH mice; low dose D-OCA (63 mg/kg i.p. every other day)) was “significant reduction”.

Compound `Cc1ccc(NC(=O)c2ccc(CN3CCN(CCOCCOCCOCCN=[N+]=[N-])CC3)c(C(F)(F)F)c2)cc1NC(=O)c1cccc(-c2cnn(C)c2)c1` [CSF1R-E analogue 1] has a Kd (CSF1R) of about 13 nM.

With `CCCc1nc2c(C)cc(-c3nc4ccccc4n3C)cc2n1Cc1ccc(-c2ccccc2C(=O)O)cc1` [Telmisartan, reference compound] the liver weight (NASH mice; NASH mice at nine weeks of age, compared to vehicle-treated NASH mice) was “reduce liver weight”.

With “telmisartan-PEG3-amide azide [Telmisartan amide linker]” the Kd [1] was 74.2 nM.
